# B1: THTVGSYFSVQNGYVGAFSQALGNSEYAMNSPLGSLDGRTTMYNLLGVKYLFAREDQLKKQ (peptide, listed as Lactobacillus plantarum)
# chain: THTVGSYFSVQNGYVGAFSQALGNSEYAMNSPLGSLDGRTTMYNLLGVKYLFAREDQLKKQ
# notes: positive control
# Key:
# DSS-induced IBD in mice [1] = assay: Colon length in DSS-induced acute IBD mouse model; format: in vivo, male C57BL6 mice; conditions: 50 μg/kg intragastrically, 7 days pre-administration, then daily together with 2.5 wt % DSS; x±SD; model group 5.3±0.6, blank control 9.4±0.6; in cm (unit assumed)
# Procedure: (§1) The administration of a DSS solution with a specified concentration to mice can induce an acute IBD model characterized by diarrhea, hematochezia, ulcer, and granulocyte infiltration. Mice were randomly grouped according to body weights of the mice. 40 healthy male C57BL6 mice were divided into four groups each with 10 mice:
# (§2) blank control group: the mice were each intragastrically administered with water every day at a volume of 0.4 mL/20 g;
# (§3) model group: the mice were each intragastrically administered with a DSS aqueous solution of a mass fraction of 2.5 wt % consecutively for 7 days, where the DSS aqueous solution was freshly prepared and changed every day; […]
# The body weight changes of mice in each group were recorded every day to determine whether the acute IBD mouse model was successfully established.
# (§4) A mouse colon between an anus end to an ileocecal end was integrally collected, and a length of the colon was measured; and the colon was dissected along a longitudinal axis, feces therein was rinsed off, and then the colon was stored in 4% […] or frozen at −80° C. […]
# DSS-induced IBD in mice [2] = assay: Colonic histopathological evaluation (HE staining, scoring) in DSS-induced acute IBD mouse model; format: in vivo, male C57BL6 mice; conditions: 50 μg/kg intragastrically, 7 days pre-administration, then daily together with 2.5 wt % DSS; x±SD; model group 7.4±0.6, blank control 0.0±0.0
# Procedure: as §1, §2, §3, §4
# Experimental data in the above experimental method were expressed as (x±SD), the GraphPad Prism (ver. 8.0, GraphPad Software Inc., San Diego, Calif., USA) was used to plot a chart, the SPSS Program (ver. 25.0, SPSS Inc., Chicago, Ill., USA) was used for statistical test, and one-way ANOVA or independent two-sample t-test were used for significance test when the normality and homogeneity of variances were met. […]
Molecule,colon length (DSS-induced IBD in mice [1]),colonic histopathologic score (DSS-induced IBD in mice [2])
"THTVGSYFQVQNGYVGAFSRALGNNEYAMNS (THTVGSYFXVQNGYVGAFSXALGNXEYAMNS; Sequence is synthesized; (9)..(9) Xaa can be Tyr, Val, Gly, Ser, Gln, or absent; (20)..(20) Xaa can be Ser, Gln, Glu, Tyr, Arg, or absent; (25)..(25) Xaa can be Asn, Thr, Ser, Pro, Leu, or absent) [MP-D]",8.0±0.9,1.3±0.6
B1,7.9±0.5,2.4±0.8

# — US20220402982A1, “POLYPEPTIDE FRAGMENT D (MP-D) AND USE THEREOF” (SHANGHAI LONGXIN BIOMEDICAL TECHNOLOGY CO., LTD., priority 2021, published 2022)
